Columns and labels:
Type in all cases: in vivo
[1] = system: Sunflower; assay: Test C preemergence; conditions: Rate 250 g/ha, visual evaluation after 12 to 14 days
[2] = system: morningglory (Ipomoea hederacea); assay: Test C preemergence
Outline: (§1)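 Preemergence: seeds sown then treated. Postemergence: plants 2–18 cm, 1- to 4-leaf. Both with surfactant-containing solvent formulation; visual injury scored 0–100 after 12–14 d.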

[3] = system: Surinam grass (Brachiaria decumbens); assay: Test C preemergence
Outline: as §1

[4] = system: cocklebur (Xanthium strumarium); assay: Test C preemergence
Outline: as §1

[5] = system: Nightshade; assay: Test C preemergence
[6] = system: giant foxtail (Setaria faberii); assay: Test C preemergence
Outline: as §1

[7] = system: pigweed (Amaranthus retroflexus); assay: Test C preemergence
Outline: as §1

[8] = system: goosegrass (Eleusine indica); assay: Test C preemergence
Outline: as §1

[9] = system: Sunflower; assay: Test C preemergence; conditions: Rate 62 g/ha; scale 0 to 100, 0 no effect, 100 complete control
[10] = system: johnsongrass (Sorghum halepense); assay: Test C preemergence
Outline: as §1

[11] = system: lambsquarters (Chenopodium album); assay: Test C preemergence
Outline: as §1

[12] = system: soybean (Glycine max); assay: Test C preemergence
Outline: as §1

[13] = system: crabgrass (Digitaria sanguinalis); assay: Test C preemergence
Outline: as §1

[14] = system: common ragweed (Ambrosia elatior); assay: Test C preemergence
Outline: as §1

[15] = system: corn (Zea mays); assay: Test C preemergence
Outline: as §1

[16] = system: woolly cupgrass (Eriochloa villosa); assay: Test C preemergence
Outline: as §1

[17] = system: bermudagrass (Cynodon dactylon); assay: Test C preemergence
Outline: as §1

[18] = system: kochia (Kochia scoparia); assay: Test C preemergence
Outline: as §1

[19] = system: yellow nutsedge (Cyperus esculentus); assay: Test C preemergence
Outline: as §1

[20] = system: velvetleaf (Abutilon theophrasti); assay: Test C preemergence
Outline: as §1

[21] = system: rice (Oryza saliva); assay: Test C flooded paddy test; conditions: for Rice plant response rating: Flooded Paddy, scale 0 to 100, 0 no effect, 100 complete control; for Plant response rating, Rice: flooded paddy test, scale 0 to 100 (0 no effect, 100 complete control)
Outline: (§2)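 Flooded paddy, 2-leaf stage at treatment. Readout: visual % control vs untreated, 0–100, at 12–14 d in greenhouse.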

[22] = system: barnyardgrass (Echinochloa crus-galli); assay: Test C flooded paddy test; conditions: for Barnyardgrass plant response rating: Flooded Paddy, scale 0 to 100, 0 no effect, 100 complete control; for Plant response rating, Barnyardgrass: flooded paddy test, scale 0 to 100 (0 no effect, 100 complete control)
Outline: as §2

[23] = Rate 62 g/ha, scale 0 to 100, 0 no effect, 100 complete control
[24] = preemergence, Rate 31 g/ha, scale 0 to 100
[25] = preemergence, Rate 250 g/ha, visual evaluation after 12 to 14 days
[26] = preemergence, Rate 125 g/ha, scale 0 to 100, 0 no effect, 100 complete control

## CC(C)(C)c1ccn(C2CCN(c3ccc(Cl)c(Cl)c3)C2=O)n1 (stereo not drawn) [Compound 34]
[1]
  Plant response rating (0 to 100), Sunflower: 0
[2]; [23]
  Plant response rating, Morningglory: 0
[2]; [24]
  Plant response rating, Morningglory: 0
[2]; [25]
  Plant response rating (0 to 100), Morningglory: 0
[2]; [26]
  Plant response rating, Morningglory: 0
[3]; [23]
  Plant response rating, Surinam grass: 0
[3]; [24]
  Plant response rating, Surinam grass: 0
[3]; [25]
  Plant response rating (0 to 100), Surinam grass: 0
[3]; [26]
  Plant response rating, Surinam grass: 0
[4]; [23]
  Plant response rating, Cocklebur: 0
[4]; [24]
  Plant response rating, Cocklebur: 0
[4]; [25]
  Plant response rating (0 to 100), Cocklebur: 0
[4]; [26]
  Plant response rating, Cocklebur: 0
[5]; Rate 31 g/ha, scale 0 to 100
  Plant response rating, Nightshade: 0
[5]; [23]
  Plant response rating, Nightshade: 0
[5]; Rate 125 g/ha, scale 0 to 100, 0 no effect, 100 complete control
  Plant response rating, Nightshade: 0
[6]; [23]
  Plant response rating, Foxtail, Giant: 30
[6]; [24]
  Plant response rating, Foxtail, Giant: 30
[6]; [25]
  Plant response rating (0 to 100), Foxtail, Giant: 50
[6]; [26]
  Plant response rating, Foxtail, Giant: 0
[7]; [23]
  Plant response rating, Pigweed: 100
[7]; [24]
  Plant response rating, Pigweed: 0
[7]; [25]
  Plant response rating (0 to 100), Pigweed: 40
[7]; [26]
  Plant response rating, Pigweed: 100
[8]; [23]
  Plant response rating, Goosegrass: 80
[8]; [24]
  Plant response rating, Goosegrass: 20
[8]; [25]
  Plant response rating (0 to 100), Goosegrass: 100
[8]; [26]
  Plant response rating, Goosegrass: 80
[9]
  Plant response rating, Sunflower: 0
[10]; [23]
  Plant response rating, Johnsongrass: 0
[10]; [24]
  Plant response rating, Johnsongrass: 0
[10]; [25]
  Plant response rating (0 to 100), Johnsongrass: 0
[10]; [26]
  Plant response rating, Johnsongrass: 0
[11]; [23]
  Plant response rating, Lambsquarters: 90
[11]; [24]
  Plant response rating, Lambsquarters: 90
[11]; [25]
  Plant response rating (0 to 100), Lambsquarters: 100
[11]; [26]
  Plant response rating, Lambsquarters: 100
[12]; [23]
  Plant response rating, Soybean: 0
[12]; [24]
  Plant response rating, Soybean: 0
[12]; [25]
  Plant response rating (0 to 100), Soybean: 0
[12]; [26]
  Plant response rating, Soybean: 0
[13]; [23]
  Plant response rating, Crabgrass: 60
[13]; [24]
  Plant response rating, Crabgrass: 0
[13]; [25]
  Plant response rating (0 to 100), Crabgrass: 100
[13]; [26]
  Plant response rating, Crabgrass: 70
[14]; [23]
  Plant response rating, Ragweed, Common: 0
[14]; [24]
  Plant response rating, Ragweed, Common: 0
[14]; [25]
  Plant response rating (0 to 100), Ragweed, Common: 0
[14]; [26]
  Plant response rating, Ragweed, Common: 0
[15]; [23]
  Plant response rating, Corn: 0
[15]; [24]
  Plant response rating, Corn: 0
[15]; [25]
  Plant response rating (0 to 100), Corn: 0
[15]; [26]
  Plant response rating, Corn: 0
[16]; [23]
  Plant response rating, Cupgrass, Woolly: 20
[16]; [24]
  Plant response rating, Cupgrass, Woolly: 0
[16]; [25]
  Plant response rating (0 to 100), Cupgrass, Woolly: 80
[16]; [26]
  Plant response rating, Cupgrass, Woolly: 20
[17]; [23]
  Plant response rating, Bermudagrass: 80
[17]; [24]
  Plant response rating, Bermudagrass: 0
[17]; [25]
  Plant response rating (0 to 100 where 0 is no effect and 100 is complete control), Bermudagrass: 100
[17]; [26]
  Plant response rating, Bermudagrass: 90
[18]; [23]
  Plant response rating, Kochia: 100
[18]; [24]
  Plant response rating, Kochia: 100
[18]; [25]
  Plant response rating (0 to 100), Kochia: 100
[18]; [26]
  Plant response rating, Kochia: 100
[19]; [23]
  Plant response rating, Nutsedge: 0
[19]; [24]
  Plant response rating, Nutsedge: 0
[19]; [25]
  Plant response rating (0 to 100), Nutsedge: 0
[19]; [26]
  Plant response rating, Nutsedge: 0
[20]; [23]
  Plant response rating, Velvetleaf: 0
[20]; [24]
  Plant response rating, Velvetleaf: 0
[20]; [25]
  Plant response rating (0 to 100), Velvetleaf: 0
[20]; [26]
  Plant response rating, Velvetleaf: 0
[21]; Rate 250 g/ha
  Rice plant response rating: 0
[21]; Rate 500 g/ha
  Rice plant response rating: 20
[21]; Rate 62 g/ha
  Plant response rating, Rice: 0
[21]; Rate 125 g/ha
  Plant response rating, Rice: 0
[22]; Rate 250 g/ha
  Barnyardgrass plant response rating: 80
[22]; Rate 500 g/ha
  Barnyardgrass plant response rating: 80
[22]; Rate 62 g/ha
  Plant response rating, Barnyardgrass: 0
[22]; Rate 125 g/ha
  Plant response rating, Barnyardgrass: 40
